In US20240366606A1, “MRGPRX2 ANTAGONISTS AND USES THEREOF” (The Regents of the University of California, priority 2021, published 2024):
“Also recorded” adds a separate entry of the source. Like-named read-outs stand apart in the source and are kept apart here.

Key:
MRGPRX2 [1] = target: T1, MRGPRX2 (Homo sapiens (Human), UniProt Q96LB1); experiment: FLIPR Ca2+ assay, antagonist mode, tetracycline-inducible MRGPRX2 stable cell line; format: cell-based; conditions: for inhibition of substance P stimulated MRGPRX2 activation: EC80 substance P concentration; for antagonist activity for MRGPRX2: in words, SAR around '1592
Protocol: FLIPR Ca2+ assay. […] NK1 stably expressing cell were maintained in DMEM containing 10% (v/v) FBS, 100 units ml^−1 penicillin G and 100 μg ml^−1 streptomycin. On the day of assay, cells were plated into Poly-L-Lysine (PLL) coated 384-well black clear bottom cell culture plates with DMEM buffer, which is composed of 1% (v/v) dialyzed FBS, 100 units ml^−1 penicillin G, 100 μg ml^−1 streptomycin with 1 μg ml^−1 tetracycline at density of 20,000 cells in 40 μl per well for overnight. For NK1 stable cells, the same media used for MRGPRX2 or MRGPRX4 cells except the tetracycline were used. Medium was removed and cells were incubated with 20 μl of calcium dye (FLIPR Calcium 4 Assay Kit; Molecular Devices) diluted in assay buffer (1×HBSS, 2.5 mM probenecid, and 20 mM HEPES, pH 7.4) for 1 hour at 37° C. and 20 min at room temperature in the dark. To measure agonist activity of receptors, drug plates were prepared with increasing concentrations of test compound at 3 times the desired final concentration using drug buffer (1×HBSS, 20 mM HEPES, 0.1% (w/v) BSA, pH 7.4). Once loaded in FLIPR (Molecular Devices), basal fluorescence was measured for 10 s, then 10 μl of test compounds were added followed by continued fluorescence measurement for an additional 120 s. When measuring antagonist activity of receptors, drug plates were prepared with increasing concentrations of test compound at 4 times the desired final concentration, added as above for their potential effects on basal levels for 120 s first, followed by a 15 min incubation before addition of 10 μl of 4× of reference agonist at final concentration corresponding to the EC80. Data were normalized to % reference compound stimulation and analyzed using nonlinear regression “log(agonist) vs. response” in GraphPad Prism 9.0.

NK1R = NK1R (Homo sapiens (Human), UniProt P25103); experiment: FLIPR Ca2+ assay, antagonist mode, NK1R stable cell line; format: cell-based
Protocol: (§1) FLIPR Ca2+ assay. Tetracycline inducible MRGPRX2 or MRGPRX4 stable cells [Flp-In™ T-REx™-293 cell which is derived from HEK 293 cells (ATCC, CRL 1573)] were maintained in DMEM containing 10% (v/v) FBS, 100 units ml^−1 penicillin G, 100 μg ml^−1 streptomycin, 100 μg ml^−1 hygromycin B, and 15 μg ml^−1 blasticidin ^16. NK1 stably expressing cell were maintained in DMEM containing 10% (v/v) FBS, 100 units ml^−1 penicillin G and 100 μg ml^−1 streptomycin. On the day of assay, cells were plated into Poly-L-Lysine (PLL) coated 384-well black clear bottom cell culture plates with DMEM buffer, which is composed of 1% (v/v) dialyzed FBS, 100 units ml^−1 penicillin G, 100 μg ml^−1 streptomycin with 1 μg ml^−1 tetracycline at density of 20,000 cells in 40 μl per well for overnight. For NK1 stable cells, the same media used for MRGPRX2 or MRGPRX4 cells except the tetracycline were used. […] Once loaded in FLIPR (Molecular Devices), basal fluorescence was measured for 10 s, then 10 μl of test compounds were added followed by continued fluorescence measurement for an additional 120 s. […] Data were normalized to % reference compound stimulation and analyzed using nonlinear regression “log(agonist) vs. response” in GraphPad Prism 9.0.

MRGPRX2 [2] = target: T1, MRGPRX2; experiment: BRET1 recruitment assay (inverse agonist activity, miniGq recruitment) in HEK293T cells; format: cell-based
Protocol: Bioluminescence resonance energy transfer assay 1 (BRET1). To test the inverse agonist activities of MRGPRX2 compounds, BRET1 recruitment assay was performed. Human MRGPRX2 containing C-terminal Renilla luciferase (RLuc8), and Venus-tagged miniGq were co-transfected at a ratio of 1:5 using HEK293T cells. After 20-24 hours, transfected cells were plated into poly-L-lysine coated 96-well clear bottom white plate in plating media (DMEM+1% (v/v) dialyzed FBS). The next day, media was decanted and cells were washed once with 60 μl drug buffer (1×HBSS, 20 mM HEPES, 0.1% (w/v) BSA, pH 7.4), then 60 μl drug buffer containing 5 μM coelenterazine h (Promega) was added to each well and incubate for 5 min. Cells were then treated with 30 μl of 3× designated drug for an additional 5 minutes. After drug incubation, plates were read in an LB940 Mithras plate reader (Berthold Technologies) for both luminescence at 485 nm and fluorescent eYFP emission at 530 nm for 1 s per well. The ratio of eYFP/RLuc was calculated per well and the net BRET ratio was calculated and fitted using “log(inhibitor) vs. response” in GraphPad Prism 9.0 to represent the inhibitory effect of MRGPX2 compound.

MRGPRX4 = MRGPRX4 (Homo sapiens (Human), UniProt Q96LA9); experiment: FLIPR Ca2+ assay, antagonist mode, tetracycline-inducible MRGPRX4 stable cell line; format: cell-based
Protocol: as §1

[3] = test system: a number of GPCRs, ion channels and transporters; experiment: Off-target profiling / inhibition screen (NIMH PDSP binding assays); conditions: screened at 10 μM
Protocol: Inhibition screen. Binding assays were performed by the NIMH Psychoactive Drug Screening program as described previously (PMID: 23235874). Detailed binding assay protocols are available at: https://pdspdb.unc.edu/pdspWeb/content/UNC-CH %20Protocol %20Book.pdf.

LAD2 human mast cells = experiment: Human mast cell activation (beta-hexosaminidase release) assay; format: cell-based; conditions: (R)-ZINC-3573 stimulation; listed as C9
Protocol: Human Mast Cell activation (Beta-hexosaminidase release) Assay. Mast cell activation was assessed by measuring extracellular release of Beta-hexosaminidase, a major component of mast cell granules. To assay human mast cell Beta-hexosaminidase release, LAD2 human mast cells were seeded at a concentration of 2*10^5 cells per well in 96-well plates in Tyrode's buffer (100 μl). 15 minutes prior to activation, varying concentrations of either C7 or C9 were added to the wells to reach a total volume of 190 μl. For activation, (R)-ZINC-3573 (10 μl, 2 μM) was added to each well for 30 minutes at 37° C. Separate wells received either buffer (buffer control), 0.1% Triton X-100 (total beta-hexosaminidase control), or (R)-ZINC-3573 alone (positive control) for the same amount of time. 30 μl of the supernatant were then removed from each well and added to 10 μl of NAG substrate solution (p-nitrophenyl-N-acetyl-β-D-glucosaminide) and allowed to incubate for 1 hour at 37° C. Carbonate buffer (100 μl) was then added to each well and the absorbance of each well was immediately measured at 405 nm using a plate reader. Percent degranulation (%) was calculated as follows: ((Treatment release−buffer release)/(total release−buffer release))*100. Samples were run in quadruplicate and each compound was assayed in at least two independent experiments. Data were analyzed using GraphPad Prism 9.0.

[4] = Table 1, read-out: pKi (calc.) (converted)
[5] = antagonist activity at MRGPRX2, EC80 (R)-ZINC-3573 (3 μM), read-out: Ki value

T1 sequence (Q96LB1 whole entry): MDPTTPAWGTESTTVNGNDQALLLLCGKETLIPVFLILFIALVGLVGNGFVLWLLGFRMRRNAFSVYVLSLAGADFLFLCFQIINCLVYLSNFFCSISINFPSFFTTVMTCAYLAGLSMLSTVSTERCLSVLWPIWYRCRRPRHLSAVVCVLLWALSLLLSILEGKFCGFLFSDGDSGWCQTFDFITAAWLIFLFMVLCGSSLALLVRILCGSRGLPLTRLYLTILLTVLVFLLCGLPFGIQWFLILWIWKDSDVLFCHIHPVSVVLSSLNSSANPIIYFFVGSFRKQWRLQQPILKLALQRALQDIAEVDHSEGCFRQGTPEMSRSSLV
NK1R, sequence (P25103 whole entry, species assumed): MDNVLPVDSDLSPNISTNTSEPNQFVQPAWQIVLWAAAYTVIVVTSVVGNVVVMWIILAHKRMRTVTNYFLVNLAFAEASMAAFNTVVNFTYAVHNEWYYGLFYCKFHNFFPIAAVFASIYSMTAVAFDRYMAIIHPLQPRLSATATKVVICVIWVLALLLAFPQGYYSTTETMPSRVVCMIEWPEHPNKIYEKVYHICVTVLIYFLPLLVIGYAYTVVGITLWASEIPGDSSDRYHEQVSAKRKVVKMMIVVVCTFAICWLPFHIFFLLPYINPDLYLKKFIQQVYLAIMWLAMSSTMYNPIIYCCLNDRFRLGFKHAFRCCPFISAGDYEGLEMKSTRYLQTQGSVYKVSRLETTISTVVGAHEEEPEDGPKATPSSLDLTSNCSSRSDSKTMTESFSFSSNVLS
MRGPRX4, sequence (Q96LA9 whole entry): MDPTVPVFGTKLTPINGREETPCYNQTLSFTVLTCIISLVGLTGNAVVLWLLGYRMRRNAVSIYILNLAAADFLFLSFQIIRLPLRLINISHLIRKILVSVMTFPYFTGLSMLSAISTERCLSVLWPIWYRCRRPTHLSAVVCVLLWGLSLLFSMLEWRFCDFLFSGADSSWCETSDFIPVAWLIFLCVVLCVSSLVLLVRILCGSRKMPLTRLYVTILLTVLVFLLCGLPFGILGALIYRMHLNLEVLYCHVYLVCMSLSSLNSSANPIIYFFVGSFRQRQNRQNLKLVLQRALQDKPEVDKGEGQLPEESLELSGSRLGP

Compound | pKi (calc.) (MRGPRX2 [1]; Table 1) | Ki (MRGPRX2 [1]; Table 1, read-out: Ki) [nM] | also measured
O=c1c2ccccc2[nH]c(=S)n1Cc1ccsc1 [Compound C9-9] | 7.32 ± 0.04 | 47 | 
O=c1c2ccccc2[nH]c(=S)n1Cc1cccs1 [Compound C9-8] | 6.29 ± 0.23 | 514 | 
Cn1ccnc1Cn1c(=S)[nH]c2ccccc2c1=O [Compound 6] | 6.5 | 318 | 
COc1ccccc1Cn1c(=S)[nH]c2ccccc2c1=O [Compound C9-5] | 7.01 ± 0.07 | 98 | 
O=c1c2ccccc2[nH]c(=S)n1Cc1ccccn1 [ZINC16991592, reference compound] |  | 2190 | Ki (MRGPRX2 [1]; [4]): 2340 nM; Ki (MRGPRX2 [1]; [5]): 189 nM
O=c1c2ccccc2[nH]c(=S)n1Cc1ccco1 [Compound C9-6] | 7.42 ± 0.06 | 38 | antagonist activity towards NK1R (NK1R): no antagonist activity; inverse agonist activity, inhibition of basal recruitment of Gq by MRGPRX2 (MRGPRX2 [2]): inhibit the basal recruitment of Gq by MRGPRX2; also recorded: inverse agonists; inhibition of substance P stimulated MRGPRX2 activation (MRGPRX2 [1]): inhibit substance P stimulated MRGPRX2 activation; also recorded: could inhibit MRGPRX2 activation; Ki (MRGPRX2 [1]; [5]): 58 nM; antagonist activity for MRGPRX2 (MRGPRX2 [1]): improved antagonist activity; also recorded: most potent and selective antagonist; antagonist activity towards MRGPRX4 (MRGPRX4): no antagonist activity; off-target activity [3]: no significant activity
O=c1c2ccccc2[nH]c(=S)n1Cc1ccon1 [Compound C9-1] | 6.76 ± 0.21 | 172 | 
O=c1c2ccccc2[nH]c(=S)n1Cc1ccon1 [Compound 5] |  | 895 | Ki (MRGPRX2 [1]; [4]): 1000 nM
O=c1c2ccccc2[nH]c(=S)n1Cc1ccccc1 [Compound 1] |  | 57 | Ki (MRGPRX2 [1]; [4]): 63.1 nM
O=c1c2cc(F)ccc2[nH]c(=S)n1Cc1ccccn1 [Compound 14] | 5.6 | 2520 | 
O=c1c2ccccc2[nH]c(=S)n1Cc1ccccc1Cl [Compound C9-4] | 5.93 ± 0.3 | 1160 | 
COc1cccnc1Cn1c(=S)[nH]c2ccccc2c1=O [Compound 8] |  | 57 | Ki (MRGPRX2 [1]; [4]): 63.1 nM
O=c1c2ccccc2[nH]c(=S)n1CCc1ccccn1 [Compound 7] | 5.2 | 6520 | antagonist activity for MRGPRX2 (MRGPRX2 [1]): inactive control
Cc1csc(Cn2c(=S)[nH]c3ccccc3c2=O)n1 [Compound C9-7] | 6.03 ± 0.08 | 929 | 
O=c1c2ccccc2[nH]c(=S)n1Cc1nccs1 [Compound 9] | 7.5 | 32 | antagonist activity towards NK1R (NK1R): no antagonist activity; inverse agonist activity, inhibition of basal recruitment of Gq by MRGPRX2 (MRGPRX2 [2]; listed as C9): inhibit the basal recruitment of Gq by MRGPRX2; also recorded: inverse agonists; inhibition of substance P stimulated MRGPRX2 activation (MRGPRX2 [1]; listed as C9): inhibit substance P stimulated MRGPRX2 activation; also recorded: could inhibit MRGPRX2 activation; Ki (MRGPRX2 [1]; [5]): 43 nM; antagonist activity for MRGPRX2 (MRGPRX2 [1]; listed as C9): improved antagonist activity; also recorded: most potent and selective antagonist; antagonist activity towards MRGPRX4 (MRGPRX4): no antagonist activity; off-target activity [3]: no significant activity; inhibition of (R)-ZINC-3573-stimulated LAD2 human mast cell degranulation (LAD2 human mast cells): inhibit MRGPRX2 mediated LAD2 human mast activation; also recorded: inhibit (R)-ZINC-3573-stimulated LAD2 human mast cell degranulation in a concentration-dependent manner
O=c1c2ccccc2[nH]c(=S)n1Cc1ccc(Cl)cc1 [Compound C9-3] | 5.75 ± 0.16 | 1780 | 
